Results published in paper PMC7413254 (Nature Communications, 2020).

Key:
Type in all cases: cell-based
PfCRT^3D7 = PfCRT^3D7 (Plasmodium falciparum, UniProt Q8IBZ9); assay: cell-based; conditions: PfCRT3D7 oocytes, normalised to oocyte type control
Description: (§1) Unless specified otherwise, the transport assays were conducted over 1.5 h at 27.5 °C and the reaction buffer was ND96 (96 mM NaCl, 2 mM KCl, 1 mM MgCl2, 1.8 mM CaCl2, 10 mM MES and 10 mM Tris-base) at pH 5.5.
(§2) The intracellular concentrations were calculated using previous estimates of the volume of stage V–VI oocytes (~400 nL[60]). […] The oocytes were injected with VF-6 suspended in 25 nL ND96 buffer adjusted to pH 5.0, 5.5, 6.0 or 7.0, which corresponded to the injection of 2.5–250 fmol of H^+. The Na^+-dependence of the trans-stimulatory effect of VF-6 was assessed by injecting the oocytes with VF-6 suspended in ND96 buffer (pH 5.5) or a Na^+-free version of this buffer (the Na^+ was replaced with choline).
(§3) At least four independent experiments were performed (on different days and using oocytes from different frogs), and within each experiment measurements were made from ten oocytes per treatment.

PfCRT^Dd2 [1] = target: T1, PfCRT^Dd2 (Plasmodium falciparum, UniProt Q9N623, A220S/I356T/K76T/M74I/N326S/N75E/Q271E/R371I); assay: cell-based; conditions: for PfCRT-mediated [3H]CQ transport, trans-stimulation (% PfCRTDd2 control): PfCRTDd2 oocytes, normalised to oocyte type control; for [3H]CQ transport (% PfCRTDd2 control), trans-stimulation, PfCRTDd2: PfCRT-mediated component (background subtracted), mean ± SEM, SEM
T1 sequence (Q9N623 whole entry A220S/I356T/K76T/M74I/N326S/N75E/Q271E/R371I): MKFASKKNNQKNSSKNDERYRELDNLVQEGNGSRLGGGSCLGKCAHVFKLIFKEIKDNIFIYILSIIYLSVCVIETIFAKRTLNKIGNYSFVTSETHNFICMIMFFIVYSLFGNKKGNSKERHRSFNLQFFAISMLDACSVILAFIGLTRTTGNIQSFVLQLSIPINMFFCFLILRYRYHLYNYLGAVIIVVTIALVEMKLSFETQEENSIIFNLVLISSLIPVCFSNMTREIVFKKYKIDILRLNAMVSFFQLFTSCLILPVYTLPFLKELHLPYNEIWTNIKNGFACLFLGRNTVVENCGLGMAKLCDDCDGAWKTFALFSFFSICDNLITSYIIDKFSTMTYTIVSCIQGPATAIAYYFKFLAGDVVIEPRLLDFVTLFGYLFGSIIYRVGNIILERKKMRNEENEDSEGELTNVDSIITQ
Description: as §1, §2, §3

PfCRT^Ecu1110 [2] = target: T2, PfCRT^Ecu1110 (Plasmodium falciparum, UniProt Q9N623, A220S/I356L/K76T/N326D); assay: cell-based; conditions: for PfCRT-mediated [3H]CQ transport, trans-stimulation (% PfCRTEcu1110 control): PfCRTEcu1110 oocytes, normalised to oocyte type control; for [3H]CQ transport (% PfCRTDd2 control), trans-stimulation, PfCRTEcu1110: PfCRT-mediated component (background subtracted), sheet title says normalised to PfCRTDd2 control, mean ± SEM, SEM
T2 sequence (Q9N623 whole entry A220S/I356L/K76T/N326D): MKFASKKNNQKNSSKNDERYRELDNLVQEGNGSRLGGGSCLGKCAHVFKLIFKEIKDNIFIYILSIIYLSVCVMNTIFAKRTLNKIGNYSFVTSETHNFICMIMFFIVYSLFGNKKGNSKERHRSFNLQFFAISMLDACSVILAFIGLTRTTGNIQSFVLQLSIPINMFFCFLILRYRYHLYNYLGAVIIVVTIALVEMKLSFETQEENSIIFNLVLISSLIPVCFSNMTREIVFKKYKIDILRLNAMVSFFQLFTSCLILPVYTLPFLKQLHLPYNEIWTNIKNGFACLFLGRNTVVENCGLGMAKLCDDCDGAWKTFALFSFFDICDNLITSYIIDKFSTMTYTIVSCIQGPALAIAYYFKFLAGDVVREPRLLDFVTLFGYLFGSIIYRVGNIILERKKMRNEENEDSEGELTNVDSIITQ
Description: as §1, §2, §3

PfCRT^Dd2 [3] = target: T1, PfCRT^Dd2; assay: [3H]CQ uptake into Xenopus oocytes, cis-inhibition by unlabelled solute; conditions: PfCRTDd2 oocytes, background [3H]CQ accumulation subtracted, normalised to oocyte type control
From the text: (§4) The orientation of PfCRT in the parasite’s DV membrane, and also in the oocyte plasma membrane, is such that its N- and C-termini extend into the cytosol. The oocytes were suspended in a reaction buffer adjusted to pH 5.5 to mimic the pH of the DV lumen[1],[2]. In this scenario, the transport of a substrate via PfCRT from the acidic extracellular solution into the oocyte cytosol[15] is analogous to the parasite’s PfCRT-mediated efflux of a substrate from the acidic DV and into the cytosol. Unless specified otherwise, this is the direction in which substrate transport was measured in the oocyte assays.
as §1
(§5) Ten oocytes were washed twice with the relevant ND96 buffer. […] The assay was terminated by removing the reaction buffer and washing the oocytes with ice-cold ND96 buffer. The oocytes were lysed in 10% (w/v) sodium dodecyl sulfate (SDS) and the radioactivity accumulated within each oocyte was measured with a MicroBeta^2 microplate liquid scintillation analyser (PerkinElmer).
as §3

PfCRT^Ecu1110 [4] = target: T2, PfCRT^Ecu1110; assay: as above; conditions: for PfCRT-mediated [3H]CQ transport, cis-inhibition (% PfCRTEcu1110 control): PfCRTEcu1110 oocytes, background [3H]CQ accumulation subtracted, normalised to oocyte type control; for [3H]CQ transport (% PfCRTEcu1110 control), cis-inhibition, PfCRTEcu1110: PfCRT-mediated component (background subtracted), sheet title says normalised to PfCRTDd2 control, mean ± SEM, SEM
From the text: as §4, §1, §5, §3

[5] = [test solute]i = 5 mM (intracellular)
[6] = [test solute]i = 45 mM (intracellular; 30 mM for some solutes due to solubility)
[7] = [test solute]i = 5 mM (injected)
[8] = [test solute]i = 45 mM (30 mM for some solutes due to solubility)

PfCRT^3D7, sequence (Q8IBZ9 59-398): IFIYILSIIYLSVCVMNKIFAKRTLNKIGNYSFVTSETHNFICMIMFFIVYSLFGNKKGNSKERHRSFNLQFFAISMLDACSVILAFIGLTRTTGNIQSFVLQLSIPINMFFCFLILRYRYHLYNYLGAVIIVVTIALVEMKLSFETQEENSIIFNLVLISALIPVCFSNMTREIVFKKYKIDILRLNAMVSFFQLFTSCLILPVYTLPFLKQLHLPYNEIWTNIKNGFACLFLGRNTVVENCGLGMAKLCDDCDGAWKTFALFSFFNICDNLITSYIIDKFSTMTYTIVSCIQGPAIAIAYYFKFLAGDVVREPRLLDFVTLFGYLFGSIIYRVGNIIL

Substance: GLAHL [GL-5]
- PfCRT-mediated [3H]CQ transport, trans-stimulation (% PfCRT3D7 control) (PfCRT^3D7; [5]): 97 ± 3.5 % PfCRT3D7 control
- PfCRT-mediated [3H]CQ transport, trans-stimulation (% PfCRT3D7 control) (PfCRT^3D7; [6]): 94 ± 4.6 % PfCRT3D7 control
- PfCRT-mediated [3H]CQ transport, trans-stimulation (% PfCRTDd2 control) (PfCRT^Dd2 [1]; [5]): 98 ± 4.1 % PfCRTDd2 control
- PfCRT-mediated [3H]CQ transport, trans-stimulation (% PfCRTDd2 control) (PfCRT^Dd2 [1]; [6]): 98 ± 3.3 % PfCRTDd2 control
- [3H]CQ transport (% PfCRTDd2 control), trans-stimulation, PfCRTDd2 (PfCRT^Dd2 [1]; [7]): 98 ± 4.1 % PfCRTDd2 control
- [3H]CQ transport (% PfCRTDd2 control), trans-stimulation, PfCRTDd2 (PfCRT^Dd2 [1]; [8]): 98 ± 3.3 % PfCRTDd2 control
- PfCRT-mediated [3H]CQ transport, trans-stimulation (% PfCRTEcu1110 control) (PfCRT^Ecu1110 [2]; [5]): 96 ± 4.1 % PfCRTEcu1110 control
- PfCRT-mediated [3H]CQ transport, trans-stimulation (% PfCRTEcu1110 control) (PfCRT^Ecu1110 [2]; [6]): 99 ± 3.6 % PfCRTEcu1110 control
- [3H]CQ transport (% PfCRTDd2 control), trans-stimulation, PfCRTEcu1110 (PfCRT^Ecu1110 [2]; [7]): 29 ± 1.4 % PfCRTEcu1110 control
- [3H]CQ transport (% PfCRTDd2 control), trans-stimulation, PfCRTEcu1110 (PfCRT^Ecu1110 [2]; [8]): 30 ± 1.3 % PfCRTEcu1110 control
- PfCRT-mediated [3H]CQ transport, cis-inhibition (% PfCRTDd2 control) (PfCRT^Dd2 [3]; [test solute] = 0.5 mM): 62 ± 1.1 % PfCRTDd2 control
- PfCRT-mediated [3H]CQ transport, cis-inhibition (% PfCRTDd2 control) (PfCRT^Dd2 [3]; [test solute] = 1 mM): 50 ± 3.5 % PfCRTDd2 control
- PfCRT-mediated [3H]CQ transport, cis-inhibition (% PfCRTDd2 control) (PfCRT^Dd2 [3]; [test solute] = 2 mM): 20 ± 1.3 % PfCRTDd2 control
- PfCRT-mediated [3H]CQ transport, cis-inhibition (% PfCRTEcu1110 control) (PfCRT^Ecu1110 [4]; [test solute] = 0.5 mM): 68 ± 2.5 % PfCRTEcu1110 control
- PfCRT-mediated [3H]CQ transport, cis-inhibition (% PfCRTEcu1110 control) (PfCRT^Ecu1110 [4]; [test solute] = 1 mM): 58 ± 3.5 % PfCRTEcu1110 control
- PfCRT-mediated [3H]CQ transport, cis-inhibition (% PfCRTEcu1110 control) (PfCRT^Ecu1110 [4]; [test solute] = 2 mM): 28 ± 2.0 % PfCRTEcu1110 control
- [3H]CQ transport (% PfCRTEcu1110 control), cis-inhibition, PfCRTEcu1110 (PfCRT^Ecu1110 [4]; [test solute] = 1 mM): 18 ± 0.1 % PfCRTEcu1110 control
- [3H]CQ transport (% PfCRTEcu1110 control), cis-inhibition, PfCRTEcu1110 (PfCRT^Ecu1110 [4]; [test solute] = 2 mM): 9.0 ± 0.01 % PfCRTEcu1110 control

Substance: HVDPEN [HN-6]
- PfCRT-mediated [3H]CQ transport, trans-stimulation (% PfCRT3D7 control) (PfCRT^3D7; [5]): 148 ± 4.6 % PfCRT3D7 control
- PfCRT-mediated [3H]CQ transport, trans-stimulation (% PfCRT3D7 control) (PfCRT^3D7; [6]): 193 ± 4.7 % PfCRT3D7 control
- PfCRT-mediated [3H]CQ transport, trans-stimulation (% PfCRTDd2 control) (PfCRT^Dd2 [1]; [5]): 100 ± 2.1 % PfCRTDd2 control
- PfCRT-mediated [3H]CQ transport, trans-stimulation (% PfCRTDd2 control) (PfCRT^Dd2 [1]; [6]): 113 ± 1.1 % PfCRTDd2 control
- [3H]CQ transport (% PfCRTDd2 control), trans-stimulation, PfCRTDd2 (PfCRT^Dd2 [1]; [7]): 100 ± 2.1 % PfCRTDd2 control
- [3H]CQ transport (% PfCRTDd2 control), trans-stimulation, PfCRTDd2 (PfCRT^Dd2 [1]; [8]): 113 ± 1.1 % PfCRTDd2 control
- PfCRT-mediated [3H]CQ transport, trans-stimulation (% PfCRTEcu1110 control) (PfCRT^Ecu1110 [2]; [5]): 117 ± 2.2 % PfCRTEcu1110 control
- PfCRT-mediated [3H]CQ transport, trans-stimulation (% PfCRTEcu1110 control) (PfCRT^Ecu1110 [2]; [6]): 136 ± 3.2 % PfCRTEcu1110 control
- [3H]CQ transport (% PfCRTDd2 control), trans-stimulation, PfCRTEcu1110 (PfCRT^Ecu1110 [2]; [7]): 35 ± 1.3 % PfCRTEcu1110 control
- [3H]CQ transport (% PfCRTDd2 control), trans-stimulation, PfCRTEcu1110 (PfCRT^Ecu1110 [2]; [8]): 41 ± 1.6 % PfCRTEcu1110 control
- PfCRT-mediated [3H]CQ transport, cis-inhibition (% PfCRTDd2 control) (PfCRT^Dd2 [3]; [test solute] = 0.5 mM): 21 ± 0.7 % PfCRTDd2 control
- PfCRT-mediated [3H]CQ transport, cis-inhibition (% PfCRTDd2 control) (PfCRT^Dd2 [3]; [test solute] = 1 mM): 15 ± 1.1 % PfCRTDd2 control
- PfCRT-mediated [3H]CQ transport, cis-inhibition (% PfCRTDd2 control) (PfCRT^Dd2 [3]; [test solute] = 2 mM): 7.3 ± 0.2 % PfCRTDd2 control
- PfCRT-mediated [3H]CQ transport, cis-inhibition (% PfCRTEcu1110 control) (PfCRT^Ecu1110 [4]; [test solute] = 0.5 mM): 61 ± 1.5 % PfCRTEcu1110 control
- PfCRT-mediated [3H]CQ transport, cis-inhibition (% PfCRTEcu1110 control) (PfCRT^Ecu1110 [4]; [test solute] = 1 mM): 44 ± 3.1 % PfCRTEcu1110 control
- PfCRT-mediated [3H]CQ transport, cis-inhibition (% PfCRTEcu1110 control) (PfCRT^Ecu1110 [4]; [test solute] = 2 mM): 49 ± 2.4 % PfCRTEcu1110 control
- [3H]CQ transport (% PfCRTEcu1110 control), cis-inhibition, PfCRTEcu1110 (PfCRT^Ecu1110 [4]; [test solute] = 0.5 mM): 19 ± 0.3 % PfCRTEcu1110 control
- [3H]CQ transport (% PfCRTEcu1110 control), cis-inhibition, PfCRTEcu1110 (PfCRT^Ecu1110 [4]; [test solute] = 1 mM): 14 ± 0.1 % PfCRTEcu1110 control
- [3H]CQ transport (% PfCRTEcu1110 control), cis-inhibition, PfCRTEcu1110 (PfCRT^Ecu1110 [4]; [test solute] = 2 mM): 15 ± 0.4 % PfCRTEcu1110 control
